According to patent publication US5792635A, “Method of inhibiting the sodium/proton exchanger NHE3 and method of inhibiting growth by administering squalamine” (priority 1995, dated 1998):
Entries after “also recorded” stand apart in the source; their conditions may differ.

How the values were obtained:
NHE1β = settings: nucleated erythrocytes; cited from earlier work
Xenopus tadpoles [1] = assay: Tadpole assay; settings: for observed response in tadpole: stage 59-60 Xenopus
[2] = tested on: Human ovarian carcinoma SKOV3; assay: Cancer cells inhibited in vitro; type: cell-based
Method: (§1) As set forth in Table 7 below, all malignant tumors evaluated in tissue culture, endothelial cells and vascular smooth muscle cells were sensitive to inhibition. Thus, compound 1436 has application in the control of growth factor dependent proliferation of many types of tissue.
Using the assay described above, the anticancer effects of compound 1437 against several cancer lines was assessed.

[3] = Effect on fasting blood glucose in mice; type: in vivo, mouse (CD-1); settings: intravenous; 1436 in D5W, 1437 in water
Method: To study the effect of steroid administrator or the NHE responsible for secretion of insulin, several of the aminosterols from shark liver were administered to fasting mice. Male CD-1 mice were assigned to one of four treatment groups. Whole blood glucose was tested using glucometer (Lifescan Glucometer II and One Touch test strips). Statistical analysis was via one-way analysis of variance (ANOVA) followed by subsequent Bonferonni's t-test.

B16 melanoma = assay: Synergistic inhibition of tumor growth, B16 melanoma in mice; type: in vivo, mouse; settings: squalamine 15 mg/kg/day; compound 1436 tolerable schedule
Method: Based on the idea that tumor growth involves both the clonal expansion of a malignant cell along with the development of a supporting vascular supply, a combination of compound 1436 with squalamine was tested to determine whether it would achieve a synergistic effect on solid tumor growth. This concept was evaluated in the B16 melanoma model.
Animals were implanted with B16 melanoma followed by treatment with compound 1436 or 1256 administered in a combined schedule or separately. […] Thus, a combination of these two compounds achieves a therapeutic benefit in tumors dependent on neovascularization that may prevent metastatic spread.

[4] = tested on: human coronary artery smooth muscle; assay: Proliferation of human coronary artery smooth muscle in vitro; type: cell-based; settings: FIG. 15
Description: Aminosterols of the invention may also have utility in inhibiting the growth factor mediated proliferation of smooth muscle within the artery. Following coronary angioplasty, reocclusion commonly occurs, secondary to reparative proliferation of the vascular smooth muscle within the wall of the surgically manipulated blood vessel. This process generally takes place over the course of 7-10 days. To evaluate whether an agent could prevent the growth factor mediated proliferation of smooth muscle within the artery, compound 1436 was evaluated in vitro for its effect on the proliferation of human coronary artery smooth muscle. Results for compound 1436 are shown in FIG. 13, and those for squalamine are shown in FIG. 14, with FIG. 15 being a composite logarithmic plot.

[5] = tested on: Human microvascular endothelial cells; assay: Non-transformed cells inhibited in vitro; type: cell-based; settings: 10 μg/ml
Description: as §1

[6] = tested on: bovine pulmonary endothelial cells; assay: Non-transformed cells inhibited in vitro; type: cell-based; settings: 10 μg/ml
Description: as §1

[7] = tested on: human umbilical venous endothelial cells; assay: Non-transformed cells inhibited in vitro; type: cell-based; settings: 10 μg/ml
Description: as §1

[8] = tested on: Human coronary artery smooth muscle cells; assay: Non-transformed cells inhibited in vitro; type: cell-based; settings: 10 μg/ml
Description: as §1

[9] = tested on: vitelline capillaries of 3- to 5-day chick embryo; assay: Chick embryo vitelline capillary regression assay; type: in vivo; settings: for vitelline capillary regression, potency in words: chick embryo capillary bed
Method: Using the chick embryo vitelline capillaries assay, compounds were tested for their ability to induce capillary regression. Each compound was applied in 0.1 ml of 15% Ficol 400 and PBS onto the embryo, and vascular regression was assessed after 60 minutes.
The 3-day chick embryo consists of an embryonic disc from which numerous vessels emerge and return, forming a "figure 8"-shaped structure--the embryo in the center with vascular loops extending outward over both poles. […] Following a lag period of around 15 minutes, the constriction of continuity between capillary and secondary vessels, generally on the "venous" side, was observed. Continued pulsatile blood flow progressed, resulting in a "swelling" of the blind tube, followed by a pinching off of the remaining connection and formation of an enclosed vascular sac resembling a "blood island." This process progressed until only the largest vessels remained intact.

[10] = Effect on arterial resistance in the rat after i.v. administration; type: in vivo
Method: A 200-g rat was catheterized in the right carotid artery, and the compound was introduced over a ten-second period to a total dosage of 5 mg/kg. Within 30 seconds, the mean arterial pressure had fallen from about 100 mm Hg to about 70 mm Hg, with a marked reduction in pulse pressure from about 40 mm to about 10 mm. […] If cardiac output was basically unaffected, reduction in blood pressure would have resulted principally from a reduction in system resistance.
At that time, 40 μg of noradrenaline was introduced.

[11] = Effect on growth and weight gain of growing mice; type: in vivo, mouse (C57B)
Method: Animals were dosed QTD (i.p.) starting on Day 1. […] Animals receiving 5 mg/kg QTD experienced about a 50% reduction in growth, compared to untreated controls, while animals receiving 1 mg/kg QTD were affected by about 10%. […] They appeared very much like hypophysectamized animals might appear.

[12] = tested on: Human colon carcinoma SW948; assay: Cancer cells inhibited in vitro; type: cell-based; settings: 10 μg/ml
Description: as §1

Murine L1210 leukemia = assay: Cancer cells inhibited in vitro; type: cell-based; settings: 10 μg/ml
Description: as §1

Lewis lung carcinoma = assay: Cancer cells inhibited in vitro; type: cell-based; settings: 10 μg/ml
Description: as §1

Murine B16 melanoma = assay: Cancer cells inhibited in vitro; type: cell-based; settings: 10 μg/ml
Description: as §1

[13] = tested on: Human colon carcinoma HT29; assay: Cancer cells inhibited in vitro; type: cell-based; settings: 10 μg/ml
Description: as §1

Human melanoma WM 1617 = assay: Cancer cells inhibited in vitro; type: cell-based; settings: 10 μg/ml
Description: as §1

[14] = tested on: L1210 lymphoblastic leukemia cells; assay: Mouse model of leukemia (L1210), survival and hematological profile; settings: highest dose (10 mg/kg every 3 days i.p.); FIG. 11
Description: C57B mice were inoculated with L1210 lymphoblastic leukemia cells at an inoculum that causes leukemia in 100% of animals.

human T-cells = assay: Inhibition of PHA-stimulated human lymphocytes; type: cell-based; settings: Homo sapiens, T-cell; 10 μg/ml; read-out: inhibition of blast transformation
Description: Results are tabulated below.

LLC = LLC MTT assay (Table II); type: cell-based; settings: Lewis lung carcinoma, read-out: Minimum Effective Concentration, LLC MTT
human melanoma = assay: Effect on growth of human melanoma, time course (FIG. 17); type: cell-based
NHE5 = assay: NHE isoform selectivity inferred from tadpole and chick embryo assays
NHE = assay: Assay for direct inhibition of NHE; type: cell-based; settings: relative to squalamine
Description: Moreover, other aminosterols have shown anti-angiogenic activity. Compounds were subjected to a various assays, including the chick embryo capillary regression assay, the tadpole assay, the assay for inhibition of endothelial cord formation, and the assay for direct inhibition of NHE, as described above, to determine their utilities. As evident from the above data, correlation among the results from the chick, tadpole and in vitro inhibition of endothelial cell cord formation assays is excellent.
Through the application of these assays, compound 319 emerged as an attractive alternative to squalamine. […] Further properties of compound 319 are discussed below.

Xenopus tadpoles [15] = settings: in vivo

In the case of `N=C(N)NC(=O)c1nc(Cl)c(N)nc1N` [Amiloride], the “inhibition of NHE1β” value (NHE1β) is given as “inhibited by high concentrations of amiloride”.
With `CC(C)C(CO)(CC[C@@H](C)[C@H]1CC[C@H]2[C@@H]3[C@H](O)C[C@H]4C[C@@H](NCCCNCCCCN)CC[C@]4(C)[C@H]3CC[C@]12C)OS(=O)(=O)O` (single isomer, unassigned) [Compound 1437] the “observed response in tadpole” value (Xenopus tadpoles [1]; 10 μg/ml) was “Epithelium covering the embryonic portions of the animal, such as the tail and antennae, began to slough off in sheets; also recorded: Animal was otherwise active, with little tissue breakdown noted; also recorded: the larval skin was observed to shed off in a sheet”, the anticancer activity ([2]; SKOV3) was “anticancer activity” and the hyperglycemic response [3] was “caused hyperglycemia in mice”.
With `CC(C)[C@@H](CC[C@@H](C)[C@H]1CC[C@H]2[C@@H]3[C@H](O)C[C@H]4C[C@@H](NCCCNCCCCNCCCN)CC[C@]4(C)[C@H]3CC[C@]12C)OS(=O)(=O)O` [Compound 1436] the “effect of single agent versus combination” value (B16 melanoma) was “Neither administration of squalamine at 15 mg/kg/day nor compound 1436 alone in a tolerable schedule could achieve this effect”, the “suppression of growth of human coronary artery smooth muscle” value [4] was “suppress in vitro the growth of human coronary artery smooth muscle” and the inhibited in vitro [5] was “INHIBITED”. The inhibited in vitro [6] was “INHIBITED”, the inhibited in vitro [7] was “INHIBITED” and the inhibited in vitro [8] was “INHIBITED”. For the same molecule, the “vitelline capillary regression, potency in words” value [9] was “about the same potency as squalamine”, the reversibility by noradrenaline ([10]; 40 μg noradrenaline at 30 minutes) was “readily reversible by standard pharmacological practice” and the “duration of blood pressure effect followed without significant change” value ([10]; 5 mg/kg i.v.) was 30 min. The “death / lethality time” value (Xenopus tadpoles [1]; 10 μg/ml) was “about 2 hours”, the “observed response in tadpole” value (Xenopus tadpoles [1]; 10 μg/ml) was “common vascular occlusive effect; also recorded: Gradual reduction in overall activity. Heart beat remained strong, suggesting nervous system depression; also recorded: Melanocytes over head and tail began to swell, first exhibiting visibly distinct nuclei, followed by rupture into fragments; also recorded: dramatic disruption of melanocytes over its head, trunk, and tail, along with depression of its nervous system; also recorded: No effects are observed on epithelial cell integrity, vascular flow, erythrocyte volume, tissue integrity, muscle fiber striation, or GI tract activity” and the inhibited in vitro ([2]; 10 μg/ml) was “INHIBITED”. The “growth inhibition of mice” value ([11]; 10 mg/kg QTD i.p., after 6 doses, about 1 month) was “almost completely inhibited”, the apparent health ([11]; C57B mice, 1-10 mg/kg QTD i.p.) was “all were active, normally proportioned, not-cachectic, and in excellent apparent clinical health” and the “suppression of linear growth and weight gain” value ([11]; normal growing mice, i.p.) was “suppresses both linear growth and weight gain in growing mice in a dose-dependent fashion”. The inhibited in vitro [12] was “INHIBITED”, the inhibited in vitro (Murine L1210 leukemia) was “INHIBITED” and the inhibited in vitro (Lewis lung carcinoma) was “INHIBITED”. The inhibited in vitro (Murine B16 melanoma) was “INHIBITED”, the inhibited in vitro [13] was “INHIBITED” and the inhibited in vitro (Human melanoma WM 1617) was “INHIBITED”. For the same molecule, the hyperglycemic response [3] was “caused hyperglycemia in mice”, the “survival in L1210 leukemia mice” value [14] was “significant prolongation of life” and the inhibition at 10 µg/mL (human T-cells) was over 75%.
With `CC(C)CCC[C@@H](C)[C@H]1CC[C@H]2[C@@H]3CC[C@H]4C[C@@H](NCCCNCCCCNCCCN)CC[C@]4(C)[C@H]3CC[C@]12C` [Compound 353] the minimal effective concentration (LLC) was 1.9 µg/mL, the “vitelline capillary regression, potency in words” value [9] was “no effect on the chick embryo capillary bed” and the “functional similarity in tadpole assay” value (Xenopus tadpoles [1]; Xenopus tadpole assay) was “effects like those produced by compound 1436”. For the same molecule, the “effect on melanoma growth, time dependence” value (human melanoma; FIG. 17A, less effect within first 12 hours) was “most pronounced over 48 hours”, the “mode of cell death” value (human melanoma; cells exposed to compound 353) was “apoptotic cell death has been induced” and the “NHE5 versus NHE3 selectivity” value (NHE5) was “inhibits NHE5 to a greater extent than NHE3”.
In the case of `C[C@H](CCC(=O)O)[C@H]1CC[C@H]2[C@@H]3CC[C@H]4C[C@@H](NCCCNCCCCN)CC[C@]4(C)[C@H]3CC[C@]12C` [Compound 319], the “potency as an NHE inhibitor” value (NHE) is reported as “superior to squalamine”, the CNS effects (Xenopus tadpoles [15]) is reported as “no CNS effects” and the “activity in vitelline capillary regression assay” value ([9]; Table 5) is reported as “especially active”. The “observed response in tadpole” value (Xenopus tadpoles [1]; 10 μg/ml) was “common vascular occlusive effect”.
